The values that follow come from PubChem BioAssay AID1645862 (Buhrlage Lab, Dana-Farber Cancer Institute and Novartis …, 2021).

The target of the assay is Ubiquitin carboxyl-terminal hydrolase 8 (Homo sapiens) (UniProt P40818). The assay can be described thus: Ubiquitin-specific protease 8 inhibitors, concentration-effect, biochemical, validation of initial actives (AID 1645862).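 Further: potency reflects inhibition of USP8 cleavage of a ubiquitin rhodamine substrate.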 The settings on record: recombinant USP8 deubiquitinase activity assay.
Chain of Ubiquitin carboxyl-terminal hydrolase 8 (Homo sapiens) (P40818 whole entry, looked up): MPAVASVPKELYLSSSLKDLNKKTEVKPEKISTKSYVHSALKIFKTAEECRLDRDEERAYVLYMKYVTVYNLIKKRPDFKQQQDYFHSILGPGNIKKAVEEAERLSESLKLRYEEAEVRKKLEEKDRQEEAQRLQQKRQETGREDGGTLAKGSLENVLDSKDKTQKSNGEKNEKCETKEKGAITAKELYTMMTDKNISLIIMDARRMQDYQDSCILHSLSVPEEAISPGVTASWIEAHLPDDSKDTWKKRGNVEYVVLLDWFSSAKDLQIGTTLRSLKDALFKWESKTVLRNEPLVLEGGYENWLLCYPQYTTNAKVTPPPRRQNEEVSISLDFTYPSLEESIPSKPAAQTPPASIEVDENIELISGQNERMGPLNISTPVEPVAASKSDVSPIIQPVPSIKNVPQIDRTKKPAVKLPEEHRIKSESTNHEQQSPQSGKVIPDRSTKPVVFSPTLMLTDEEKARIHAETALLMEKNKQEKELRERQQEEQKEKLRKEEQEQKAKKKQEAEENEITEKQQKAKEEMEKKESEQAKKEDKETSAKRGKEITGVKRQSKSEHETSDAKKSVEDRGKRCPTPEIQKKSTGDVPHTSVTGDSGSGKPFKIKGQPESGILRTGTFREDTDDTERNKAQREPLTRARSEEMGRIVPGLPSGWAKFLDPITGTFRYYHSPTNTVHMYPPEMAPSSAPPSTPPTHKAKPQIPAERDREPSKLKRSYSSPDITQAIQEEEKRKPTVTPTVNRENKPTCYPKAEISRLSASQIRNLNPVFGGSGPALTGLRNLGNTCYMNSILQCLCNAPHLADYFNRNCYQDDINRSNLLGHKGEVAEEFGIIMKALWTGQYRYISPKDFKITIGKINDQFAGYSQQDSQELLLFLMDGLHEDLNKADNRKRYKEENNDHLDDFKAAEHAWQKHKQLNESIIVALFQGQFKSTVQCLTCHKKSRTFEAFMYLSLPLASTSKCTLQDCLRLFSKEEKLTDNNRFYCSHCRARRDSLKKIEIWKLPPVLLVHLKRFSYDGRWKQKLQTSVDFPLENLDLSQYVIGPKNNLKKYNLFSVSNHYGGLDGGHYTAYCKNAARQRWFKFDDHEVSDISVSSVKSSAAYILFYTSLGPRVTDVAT

Activity calls are given as the source filed them. How the calls were made is not given here. A value given as a limit tells only on which side of the number the result lay.

`CC[C@@H](C(=O)[C@@H](C)[C@@H](O)[C@H](C)CCc1ccc(C)c(O)c1C(=O)O)[C@@H]1O[C@](CC)([C@H]2CC[C@](O)(CC)[C@H](C)O2)C[C@@H]1C`: the IC50 was > 40 µM (inactive).

Consider `COc1cc(Cl)c(C)cc1NC(=O)Cn1c(=O)n(CC(=O)NCc2ccco2)c(=O)c2ccccc21`, for which the IC50 was > 40 µM (inactive).

As to `COc1ccc(C2/C(=C(\O)c3ccccc3)C(=O)C(=O)N2c2nc3ccc(F)cc3s2)cc1` (configuration not stated), the IC50 is 27.2 µM.

For the compound `Cc1ccc(Nc2nc(Nc3cccc(F)c3)nc3nccnc23)c(C)c1`, the IC50 is > 40 µM (inactive).

For `Cc1ccnc(Nc2nc(-c3ccccc3)c3cc(Cl)ccc3n2)n1`, the IC50 is > 40 µM (inactive).

For the compound `O=C(CN(CC(=O)NCc1ccccc1Cl)c1nc2ccccc2s1)NCc1ccccc1Cl`, the IC50 was > 40 µM (inactive).

For the compound `COc1ccc(NC(=O)c2[nH]nc3c2COc2ccccc2-3)c(OC)c1`, the IC50 was > 40 µM (inactive).

On to `O=C(COc1ccc(Cl)cc1)Nc1noc(-c2cccs2)n1`, for which the IC50 is > 40 µM (inactive).

`COc1ccc(-c2c(NC(=O)C3COc4ccccc4O3)n[nH]c2C)cc1OC` (configuration not stated): the IC50 was 31.3 µM.

On to `O=C(c1cnccn1)N1CC[C@@H]2CNS(=O)(=O)[C@@H]2CC1`, for which the IC50 was > 40 µM (inactive).

Consider `N#Cc1ccc(NC(=O)Nc2cccn(Cc3ccccc3Br)c2=O)cc1`, for which the IC50 is > 40 µM (inactive).

Turning to `COC(=O)c1cc2c(ccn2-c2ccc(F)cc2)n1CC(=O)NC1CCCCC1`, the IC50 is > 40 µM (inactive).

On to `O=C1CC(c2ccccc2)n2ncnc2N1` (configuration not stated), for which the IC50 was > 40 µM (inactive).

On to `CCCc1nnc(C(=O)Nc2ccc(C(=O)NC(C)c3ccccc3)cc2)s1` (configuration not stated), for which the IC50 is > 40 µM (inactive).

On to `COC(=O)c1ccc2c(=O)n(CCCCCC(=O)NCCc3ccccc3Cl)c(=O)[nH]c2c1`, for which the IC50 was > 40 µM (inactive).

Consider `O=C(CSc1nc2cc(C(F)(F)F)ccc2s1)NCC(=O)c1ccccc1`, for which the IC50 is > 40 µM (inactive).

For `Cc1cccn2c(=O)c3cc(C#N)c(=O)n(-c4cccc(C(F)(F)F)c4)c3nc12`, the IC50 was > 40 µM (inactive).

For the compound `CCCCCC(=O)C(CCCC)c1oc(=O)c(CCCC)c(O)c1CCCC` (configuration not stated), the IC50 was > 40 µM (inactive).

For `CC/C=C\C/C=C\C/C=C\CCCCCCCC(=O)O`, the IC50 is 17.7 µM.

For `CSc1cccc(NC(=O)COc2cccc3ccccc23)c1`, the IC50 is > 40 µM (inactive).

As for `CCc1cccc(C)c1NC(=O)Cn1c(C(C)NC(=O)c2ccc(C)cc2)nc2ccccc21` (configuration not stated), the IC50 is > 40 µM (inactive).

`COc1ccc(-c2noc(C3(c4ccc(F)cc4)CCOCC3)n2)cc1`: the IC50 is > 40 µM (inactive).

For the compound `Cc1cccc(NC(=O)CSc2nnc(-c3n[nH]c4c3CCC4)n2N)c1C`, the IC50 is > 40 µM (inactive).

On to `Cc1cccc(-c2nnn3c2nc(NCC2CCCO2)c2ccccc23)c1` (configuration not stated), for which the IC50 was > 40 µM (inactive).

In the case of `O=C1c2c(O)c(Cl)cc3c2[C@@]2(Oc4ccc(O)c5c4[C@]3(O2)[C@@H]2O[C@@H]2C5=O)[C@@H]2O[C@H]12`, the IC50 was 1.09 µM.

As to `O=C(Nc1nc2c(ccc3ccccc32)s1)c1cccc(Br)c1`, the IC50 is > 40 µM (inactive).

Take `O=C(Nc1cccnc1)C1c2ccccc2C(=O)N(c2ccccc2)C12CCCCC2` (configuration not stated): the IC50 is > 40 µM (inactive).

Regarding `CCCCNC(=O)C1Sc2nnc(-c3ccccc3)n2NC1c1ccccc1` (configuration not stated), the IC50 is > 40 µM (inactive).

Take `Cc1ccc(C)c(S(=O)(=O)N2CCN(c3ccc4nnc(-c5ccco5)n4n3)CC2)c1`: the IC50 was > 40 µM (inactive).

In the case of `Cc1cc(OCC(=O)Nc2ccc3c(c2)NC(=O)CO3)ccc1Cl`, the IC50 is > 40 µM (inactive).

As to `CCCC[C@@H](C)/C=C(C)/C=C(\C)C(=O)NC1=C[C@](O)(/C=C/C=C/C=C/C(=O)NC2=C(O)CCC2=O)[C@@H]2O[C@@H]2C1=O`, the IC50 is > 40 µM (inactive).

For `Cc1[nH]n2c(=O)c(Cl)c(-c3ccccc3)nc2c1-c1ccccc1`, the IC50 was > 40 µM (inactive).

In general, IC50 refers to the concentration that gives 50% inhibition.
